PMC8608967, “KDS2010, a Newly Developed Reversible MAO-B Inhibitor, as an Effective Therapeutic Candidate for Parkinson’s Disease” (Neurotherapeutics, 2021)

Assays:
[1] = molecular target: T1, human recombinant MAO-B (hMAO-B) (Homo sapiens, UniProt P27338); assay: In vitro MAO-B enzyme assay (H2O2 release, absorbance 570 nm); assay type: biochemical
T1 construct: purchased Sigma Aldrich
T1 sequence (P27338 1-520): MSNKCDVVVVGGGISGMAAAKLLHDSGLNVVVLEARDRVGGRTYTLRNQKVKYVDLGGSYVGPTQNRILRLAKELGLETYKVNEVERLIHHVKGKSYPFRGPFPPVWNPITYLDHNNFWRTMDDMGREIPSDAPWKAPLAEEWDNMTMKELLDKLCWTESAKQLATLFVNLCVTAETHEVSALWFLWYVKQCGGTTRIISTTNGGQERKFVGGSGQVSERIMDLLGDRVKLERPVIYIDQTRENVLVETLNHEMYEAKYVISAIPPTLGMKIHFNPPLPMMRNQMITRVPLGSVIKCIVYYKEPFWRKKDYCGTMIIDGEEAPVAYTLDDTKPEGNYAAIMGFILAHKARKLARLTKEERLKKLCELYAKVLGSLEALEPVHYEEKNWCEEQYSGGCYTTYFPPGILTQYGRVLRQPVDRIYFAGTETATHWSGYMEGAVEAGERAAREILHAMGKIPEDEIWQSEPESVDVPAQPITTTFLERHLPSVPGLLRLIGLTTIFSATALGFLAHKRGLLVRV
Description: In brief, human recombinant MAO-A (hMAO-A) and MAO-B (hMAO-B) (Sigma Aldrich) were diluted in 50 mM phosphate buffer (~ 0.3 μg MAO-A protein/well or ~ 2.5 μg MAO-B protein/well), and the test compound was added in DMSO to a final concentration from 0.1 nM to 10 μM. The amount of hydrogen peroxide (H2O2) released after addition of enzyme substrate (p-tyramine for MAO-A or benzylamine for MAO-B) was quantified by measuring the absorbance increase at 570 nm on a microplate reader.

[2] = test system: MPTP-induced PD mouse model; assay: MPTP mouse model: vertical grid test and coat hanger test; assay type: in vivo; conditions: MPTP mice
Description: Group allocation and outcome assessment, but not the conduct of experiments and data analysis, were performed in a blinded manner. Throughout the study, confounders were not controlled. An acclimation period of 7 days was allowed for animals to stabilize in a new environment before model induction. […] Treatment drugs were dissolved in 100 μL of water and total dose (in mg) was calculated according to individual body weight (in kg).
The MPTP model was established using the acute regimen of four intraperitoneal (i.p.) injections of MPTP-HCl (M0896, Sigma Aldrich, 2 mg/mL in saline, 20 mg/kg for one injection) at 2-h intervals.
Motor deficits of the MPTP-induced PD mouse model were assessed using the vertical grid test as described in the previous study [23]. Briefly, after 2 days of habituation to the testing apparatus, individual mice were gently placed 3 cm from the top, facing upward, and allowed to turn around and climb down. We also performed a coat hanger test as described [24–26]. Briefly, a mouse was gently hung on the middle of a coat hanger and allowed to ascend to the top. Performance was graded as follows: 0, falling off the hanger within 20 s; 1, moving to the side-bar of the hanger; 2, reaching the side-bar of the hanger; 3, climbing the side-bar of the hanger; 4, moving to the top of the hanger; 5, climbing and reaching the safe zone. The test was performed twice and each trial lasted a maximum of 3 min.

[3] = test system: MPTP-induced PD mouse model; assay: MPTP mouse model: glial reactivity (GFAP, LCN2, Iba1 staining, western blot); assay type: in vivo; conditions: MPTP mice
Description: (§1) Throughout the study, confounders were not controlled.
After extensive washing, sections were incubated with corresponding fluorescent secondary antibodies for 2 h and then washed with three times in PBS. Finally, sections were mounted with fluorescent mounting medium (S3023, Dako) and dried. A series of fluorescent images were obtained using an A1 Nikon confocal microscope, and Z-stack images in 3-μm steps were processed for further analysis using ImageJ. Any alteration in brightness or contrast was applied equally to the entire image set.

[4] = test system: A53T mutant α-synuclein-overexpressing PD model rats; assay: A53T mutant α-synuclein rat model: TH staining; assay type: in vivo; conditions: 10 mg/kg/day for 15 days starting 3 weeks after virus injection
Excerpt: as §1

[5] = Pharmacokinetic study in cynomolgus monkeys (N118029); assay type: in vivo, cynomolgus monkey (Macaca fascicularis); conditions: male, cynomolgus monkey, plasma, po
Description: All animals were at least 24 months old. […] Males and females were assigned to treatment groups in a stratified manner using the Pristima System based on most recent body weight. Clinical signs, including mortality, moribundity, general appearance, and behavioral changes, were recorded with date, time, and duration. Body weight was measured prior to the first KDS2010 dose. For oral administration, KDS2010 was dissolved in water. In total, 42 monkeys were administered KDS2010 and ultimately sacrificed for autopsy.
In the pharmacokinetic study (N118029), six male monkeys were assigned to 2 groups receiving either 10 or 30 mg/kg oral KDS2010. […] Blood samples were mixed gently, stored in a wet-ice cryo-rack, and centrifuged (approximately 13,200 rpm, 5 min, 4°C) to obtain plasma. The separated plasma was aliquoted into polypropylene tubes and stored frozen until analysis.

[6] = Toxicokinetics in 4-week repeated-dose study in cynomolgus monkeys (G218027); assay type: in vivo, cynomolgus monkey (Macaca fascicularis)
Description: In the repeated 4-week oral administration toxicity with 2-week recovery and toxicokinetic test (G218027), monkeys were assigned to 4 groups of 3 males and 3 females. Each group was orally administered KDS2010 at 0, 10, 20, or 40 mg/kg/day once a day for 4 weeks. Toxicity tests were conducted as described for study G217013. For toxicokinetic measurements, blood samples were collected pre-dose (time 0) and at 1, 2, 4, 6, 8, 10, and 24 h after oral administration on the first day (day 1) and the last day (week 4; day 28) of dosing.
A non-compartmental analysis module in Phoenix® WinNonlin® (version 6.4) (Certara Inc., CA, USA) was used to calculate pharmacokinetic (PK) parameters. Systemic exposure to KDS2010 was calculated by applying the linear trapezoidal rule to the area under the plasma concentration–time curve from time zero to the last quantifiable time point (AUClast), and the maximum observed peak plasma concentration (Cmax) and the time to reach Cmax (Tmax) were determined based on the observed data. The apparent terminal elimination half-life (t1/2) was calculated from the apparent terminal elimination rate constant using the formula t1/2 = 0.693/kel.

[7] = molecular target: T1, human recombinant MAO-B (hMAO-B); conditions: cited from earlier work
[8] = test system: APP/PS1 transgenic mouse model of AD; set-up: method as in PMID 30906861; conditions: APP/PS1 mice; short-term (3 days) or long-term (30 days) treatment; cited from earlier work
[9] = long-term (30-day) treatment, 10 mg/kg/day oral
[10] = post-treatment, administered 3 days after MPTP
[11] = pre-treatment, 10 mg/kg/day oral, 3 days starting 1 day before MPTP

SMILES: C[C@H](NCc1ccc(-c2ccc(C(F)(F)F)cc2)cc1)C(N)=O [Compound 18j]
- higher MAO-B inhibitory effect of (S)-stereoisomer than (R)-isomer (19j) [1]: eightfold
- vertical grid test: time to turn [2, 9]: reduced
- vertical grid test: total time [2, 9]: reduced
- coat hanger test: motor score [2, 10]: increased
- vertical grid test: rate of missed steps [2, 10]: significantly reduced
- vertical grid test: time to turn [2, 10]: significantly reduced
- vertical grid test: total time [2, 10]: significantly reduced
- vertical grid test: rate of missed steps [2, 11]: significantly reduced
- vertical grid test: time to turn [2, 11]: significantly reduced
- vertical grid test: total time [2, 11]: significantly reduced
- coat hanger test: motor function score ([2]; pre-treatment, 10 mg/kg/day oral, vehicle-treated controls 1.8 ± 0.4, score 0-5): 3.6 ± 0.5
- GFAP staining intensity in SNpc [3]: significantly reduced
- LCN2 expression in GFAP-positive astrocytes [3]: reversed
- number of Iba1-positive microglia in SNpc [3]: significantly reduced
- reactive transformation of microglia (larger cell bodies, shorter processes) [3]: reversed
- volume of GFAP-positive astrocytes in SNpc (hypertrophy) [3]: eliminated
- MPTP-induced changes of TH, GFAP and iNOS expression (western blotting) ([3]; SNpc): all of these changes were reversed
- number of remaining TH-positive neurons in the injected SNpc [4]: increased
- striatal TH loss [4]: significantly reversed
- AUC ([5]; 10 mg/kg): 30600 ± 422 ng·h/mL
- Cmax ([5]; 10 mg/kg): 2230 ± 143 ng/mL
- AUC ([5]; 30 mg/kg): 80800 ± 5370 ng·h/mL
- Cmax ([5]; 30 mg/kg): 4850 ± 568 ng/mL
- Tmax ([6]; both sexes, cynomolgus monkey, plasma, po, cynomolgus monkeys, 10, 20 or 40 mg/kg/day p.o.): 4.72 ± 1.93 h
- dose-dependent increase of AUClast ([6]; cynomolgus monkeys, 10, 20, 40 mg/kg/day p.o.): slightly less than proportional
- mode of MAO-B inhibition ([7]; same binding cavity as selegiline): competitive inhibitor
- reversibility of MAO-B inhibition ([7]; with enantiomeric selectivity): reversible
- memory impairment [8]: effectively ameliorated
